From patent publication EP3212201B1, “NUCLEOSIDE KINASE INHIBITORS” (BCI Pharma, priority 2014, dated 2016)

How the values were obtained:
Assay in all cases: FRET-based coupled-enzyme protein kinase inhibition assay
Format in all cases: biochemical
Details in all cases: compound at 10 µM, 1% DMSO
RPS6KA3 (RSK2) = RPS6KA3 (RSK2) (Homo sapiens, UniProt P51812)
How it was run: (§1)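 Inhibition was quantified ratiometrically, as coumarin over fluorescein emission following 400 nm excitation, on a doubly labeled peptide whose cleavage by development reagent requires it to remain unphosphorylated. Kinase reactions ran 60 min at room temperature with ATP at apparent Km.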

ERBB2 (HER2) = ERBB2 (HER2) (Homo sapiens, UniProt P04626)
Sequence of ERBB2 (HER2) (P04626 23-1255, species assumed): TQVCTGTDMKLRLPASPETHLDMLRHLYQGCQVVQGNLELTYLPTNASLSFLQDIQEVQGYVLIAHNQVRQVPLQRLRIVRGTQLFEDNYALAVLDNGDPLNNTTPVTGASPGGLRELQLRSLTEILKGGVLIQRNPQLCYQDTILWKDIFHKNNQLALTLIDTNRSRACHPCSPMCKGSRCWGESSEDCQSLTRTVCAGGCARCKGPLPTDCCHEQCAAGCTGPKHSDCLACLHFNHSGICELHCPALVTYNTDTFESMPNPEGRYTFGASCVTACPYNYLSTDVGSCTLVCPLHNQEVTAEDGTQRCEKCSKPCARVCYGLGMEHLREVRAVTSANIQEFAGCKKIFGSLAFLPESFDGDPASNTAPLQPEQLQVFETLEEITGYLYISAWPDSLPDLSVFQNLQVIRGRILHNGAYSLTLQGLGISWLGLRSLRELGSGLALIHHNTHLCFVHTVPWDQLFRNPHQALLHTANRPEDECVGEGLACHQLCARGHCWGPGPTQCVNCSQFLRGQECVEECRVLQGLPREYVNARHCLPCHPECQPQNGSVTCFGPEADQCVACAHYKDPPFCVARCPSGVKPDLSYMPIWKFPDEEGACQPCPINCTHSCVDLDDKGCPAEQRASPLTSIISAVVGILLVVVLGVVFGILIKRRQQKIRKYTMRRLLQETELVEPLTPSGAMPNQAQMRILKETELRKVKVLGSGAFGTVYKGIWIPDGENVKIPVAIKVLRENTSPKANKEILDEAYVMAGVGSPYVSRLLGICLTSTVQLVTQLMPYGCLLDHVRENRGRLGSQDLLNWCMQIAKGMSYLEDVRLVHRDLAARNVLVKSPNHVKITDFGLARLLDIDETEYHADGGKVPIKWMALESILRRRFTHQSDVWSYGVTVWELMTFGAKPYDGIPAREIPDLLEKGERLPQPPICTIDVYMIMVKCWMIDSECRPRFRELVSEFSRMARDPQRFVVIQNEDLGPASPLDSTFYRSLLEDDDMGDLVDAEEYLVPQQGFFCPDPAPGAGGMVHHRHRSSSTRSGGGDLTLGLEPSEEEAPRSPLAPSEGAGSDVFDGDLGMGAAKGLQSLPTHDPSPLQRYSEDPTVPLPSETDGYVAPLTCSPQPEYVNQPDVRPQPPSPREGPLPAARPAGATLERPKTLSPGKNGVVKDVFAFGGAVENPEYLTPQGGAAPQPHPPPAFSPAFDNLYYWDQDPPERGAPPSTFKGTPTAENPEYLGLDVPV
How it was run: as §1

INSR = INSR (Homo sapiens, UniProt P06213)
Sequence of INSR (P06213 28-1382, species assumed): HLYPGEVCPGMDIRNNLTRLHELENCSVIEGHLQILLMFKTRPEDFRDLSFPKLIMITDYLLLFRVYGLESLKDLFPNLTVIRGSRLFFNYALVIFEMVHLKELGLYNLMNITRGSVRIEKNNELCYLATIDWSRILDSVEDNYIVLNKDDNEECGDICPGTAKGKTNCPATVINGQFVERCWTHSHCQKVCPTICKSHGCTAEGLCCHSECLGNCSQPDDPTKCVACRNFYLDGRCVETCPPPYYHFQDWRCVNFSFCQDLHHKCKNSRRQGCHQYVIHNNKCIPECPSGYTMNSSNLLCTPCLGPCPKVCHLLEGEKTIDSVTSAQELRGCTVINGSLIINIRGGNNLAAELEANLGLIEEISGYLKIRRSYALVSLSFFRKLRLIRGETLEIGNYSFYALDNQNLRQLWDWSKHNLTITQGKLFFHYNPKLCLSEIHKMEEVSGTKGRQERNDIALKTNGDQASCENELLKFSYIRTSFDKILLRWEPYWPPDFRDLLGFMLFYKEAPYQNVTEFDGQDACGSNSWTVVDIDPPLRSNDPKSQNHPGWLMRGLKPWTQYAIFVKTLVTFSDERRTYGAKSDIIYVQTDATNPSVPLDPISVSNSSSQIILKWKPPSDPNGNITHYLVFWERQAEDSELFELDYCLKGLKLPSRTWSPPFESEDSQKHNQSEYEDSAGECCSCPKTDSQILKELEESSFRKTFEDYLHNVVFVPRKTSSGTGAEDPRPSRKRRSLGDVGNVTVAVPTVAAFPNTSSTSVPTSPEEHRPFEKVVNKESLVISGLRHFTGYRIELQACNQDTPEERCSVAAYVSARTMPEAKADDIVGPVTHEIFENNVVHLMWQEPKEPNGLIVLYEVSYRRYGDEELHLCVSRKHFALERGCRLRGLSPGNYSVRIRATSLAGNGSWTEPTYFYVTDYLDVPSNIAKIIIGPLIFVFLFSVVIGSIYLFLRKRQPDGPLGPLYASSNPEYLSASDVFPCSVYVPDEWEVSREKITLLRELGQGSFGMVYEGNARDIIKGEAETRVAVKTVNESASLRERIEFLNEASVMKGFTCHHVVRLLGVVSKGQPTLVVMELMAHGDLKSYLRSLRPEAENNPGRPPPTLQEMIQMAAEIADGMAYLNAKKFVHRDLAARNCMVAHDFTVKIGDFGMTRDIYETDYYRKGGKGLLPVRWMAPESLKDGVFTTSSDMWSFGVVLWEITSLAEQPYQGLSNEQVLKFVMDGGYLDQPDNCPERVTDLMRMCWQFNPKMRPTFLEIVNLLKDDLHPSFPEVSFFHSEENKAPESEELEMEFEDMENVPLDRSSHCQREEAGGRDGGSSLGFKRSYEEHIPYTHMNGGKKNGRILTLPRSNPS
How it was run: as §1

SYK = SYK (Homo sapiens, UniProt P43405)
How it was run: as §1

FLT3 = target: T1, FLT3 (Homo sapiens, UniProt P36888)
T1 sequence (P36888 27-993): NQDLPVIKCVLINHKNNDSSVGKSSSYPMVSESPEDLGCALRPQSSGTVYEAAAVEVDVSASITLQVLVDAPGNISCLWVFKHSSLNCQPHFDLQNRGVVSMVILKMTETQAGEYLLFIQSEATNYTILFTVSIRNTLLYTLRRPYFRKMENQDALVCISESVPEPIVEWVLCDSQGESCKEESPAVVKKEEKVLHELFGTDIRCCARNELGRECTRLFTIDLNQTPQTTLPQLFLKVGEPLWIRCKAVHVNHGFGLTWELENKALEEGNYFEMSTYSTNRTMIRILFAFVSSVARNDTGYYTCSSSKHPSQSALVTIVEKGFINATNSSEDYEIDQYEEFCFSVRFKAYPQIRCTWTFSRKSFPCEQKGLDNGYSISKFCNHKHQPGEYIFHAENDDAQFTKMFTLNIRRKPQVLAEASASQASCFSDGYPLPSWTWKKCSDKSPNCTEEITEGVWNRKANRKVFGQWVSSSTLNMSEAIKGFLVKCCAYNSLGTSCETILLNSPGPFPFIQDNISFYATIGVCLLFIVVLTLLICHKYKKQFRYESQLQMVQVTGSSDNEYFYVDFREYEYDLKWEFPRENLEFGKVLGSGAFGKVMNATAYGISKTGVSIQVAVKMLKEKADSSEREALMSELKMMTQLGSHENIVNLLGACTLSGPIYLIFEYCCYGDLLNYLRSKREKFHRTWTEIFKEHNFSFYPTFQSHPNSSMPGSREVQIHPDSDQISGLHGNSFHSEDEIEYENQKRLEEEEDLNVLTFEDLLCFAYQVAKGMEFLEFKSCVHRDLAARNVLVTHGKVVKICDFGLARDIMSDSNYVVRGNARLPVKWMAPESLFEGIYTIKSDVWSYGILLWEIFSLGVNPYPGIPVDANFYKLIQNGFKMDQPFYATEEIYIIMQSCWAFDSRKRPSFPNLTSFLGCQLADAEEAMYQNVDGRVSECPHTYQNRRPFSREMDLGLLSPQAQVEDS
How it was run: as §1

AURKA (Aurora A) = target: T2, AURKA (Aurora A) (Homo sapiens, UniProt O14965)
T2 sequence (O14965 1-403): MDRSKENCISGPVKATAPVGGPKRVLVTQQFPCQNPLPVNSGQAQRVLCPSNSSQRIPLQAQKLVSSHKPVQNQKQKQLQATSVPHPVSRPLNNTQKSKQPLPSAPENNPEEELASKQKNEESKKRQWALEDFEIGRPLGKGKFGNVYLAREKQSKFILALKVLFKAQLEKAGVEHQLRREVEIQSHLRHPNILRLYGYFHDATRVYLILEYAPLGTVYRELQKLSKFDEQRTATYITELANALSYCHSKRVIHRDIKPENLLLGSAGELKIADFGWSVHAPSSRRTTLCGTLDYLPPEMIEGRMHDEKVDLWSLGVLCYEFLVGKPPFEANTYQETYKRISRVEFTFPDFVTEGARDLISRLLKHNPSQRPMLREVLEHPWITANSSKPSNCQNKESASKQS
How it was run: as §1

CSNK1G2 (CK1 gamma 2) = CSNK1G2 (CK1 gamma 2) (Homo sapiens, UniProt P78368)
Sequence of CSNK1G2 (CK1 gamma 2) (P78368 whole entry, species assumed): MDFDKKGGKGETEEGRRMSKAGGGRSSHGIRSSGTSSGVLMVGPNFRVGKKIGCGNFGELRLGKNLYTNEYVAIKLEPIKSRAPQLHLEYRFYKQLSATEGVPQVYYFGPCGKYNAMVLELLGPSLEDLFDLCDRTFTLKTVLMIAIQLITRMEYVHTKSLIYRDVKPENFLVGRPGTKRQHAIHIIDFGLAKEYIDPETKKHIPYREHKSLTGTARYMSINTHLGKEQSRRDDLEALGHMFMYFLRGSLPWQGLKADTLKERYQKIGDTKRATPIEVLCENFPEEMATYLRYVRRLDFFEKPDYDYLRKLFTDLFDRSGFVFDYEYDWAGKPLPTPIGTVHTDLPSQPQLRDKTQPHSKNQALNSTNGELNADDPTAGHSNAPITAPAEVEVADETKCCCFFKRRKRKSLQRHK
How it was run: as §1

MAPK3 (ERK1) = MAPK3 (ERK1) (Homo sapiens, UniProt P27361)
Sequence of MAPK3 (ERK1) (P27361 whole entry, species assumed): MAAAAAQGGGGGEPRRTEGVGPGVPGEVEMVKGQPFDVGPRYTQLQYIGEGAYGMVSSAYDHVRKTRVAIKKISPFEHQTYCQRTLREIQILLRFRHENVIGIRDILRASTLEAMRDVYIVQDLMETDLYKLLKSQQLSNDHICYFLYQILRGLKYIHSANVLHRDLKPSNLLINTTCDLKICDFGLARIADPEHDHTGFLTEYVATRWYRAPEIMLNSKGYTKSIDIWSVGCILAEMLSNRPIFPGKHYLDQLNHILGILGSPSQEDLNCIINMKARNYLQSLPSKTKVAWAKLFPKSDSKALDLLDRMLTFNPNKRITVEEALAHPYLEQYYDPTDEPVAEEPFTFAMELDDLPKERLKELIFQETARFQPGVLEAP
How it was run: as §1

Sequence of RPS6KA3 (RSK2) (P51812 whole entry, species assumed): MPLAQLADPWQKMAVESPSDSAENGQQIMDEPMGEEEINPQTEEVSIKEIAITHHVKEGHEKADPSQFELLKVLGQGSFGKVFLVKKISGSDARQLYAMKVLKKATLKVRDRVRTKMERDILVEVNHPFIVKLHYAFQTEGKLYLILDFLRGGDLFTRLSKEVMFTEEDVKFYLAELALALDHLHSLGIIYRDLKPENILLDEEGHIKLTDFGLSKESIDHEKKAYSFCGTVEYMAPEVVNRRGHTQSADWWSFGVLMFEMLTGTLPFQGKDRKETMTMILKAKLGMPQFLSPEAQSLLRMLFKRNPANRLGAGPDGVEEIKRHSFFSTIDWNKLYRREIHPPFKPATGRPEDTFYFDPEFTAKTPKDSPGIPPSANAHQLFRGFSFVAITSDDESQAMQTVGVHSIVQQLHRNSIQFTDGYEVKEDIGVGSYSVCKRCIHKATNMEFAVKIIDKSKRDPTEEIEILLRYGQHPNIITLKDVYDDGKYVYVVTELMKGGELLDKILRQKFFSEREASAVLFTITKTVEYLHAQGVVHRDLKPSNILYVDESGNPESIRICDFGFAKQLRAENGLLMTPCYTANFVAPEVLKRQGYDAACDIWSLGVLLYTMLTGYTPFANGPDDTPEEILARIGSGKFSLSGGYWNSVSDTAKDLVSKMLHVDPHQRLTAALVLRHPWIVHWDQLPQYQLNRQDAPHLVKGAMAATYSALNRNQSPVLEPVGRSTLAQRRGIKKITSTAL

| inhibition at 10 µM (RPS6KA3 (RSK2)) | inhibition at 10 µM (ERBB2 (HER2)) | inhibition at 10 µM (INSR) | inhibition at 10 µM (SYK) | inhibition at 10 µM (FLT3) | inhibition at 10 µM (AURKA (Aurora A)) | inhibition at 10 µM (CSNK1G2 (CK1 gamma 2)) | inhibition at 10 µM (MAPK3 (ERK1)) | Structure (SMILES) |
| --- | --- | --- | --- | --- | --- | --- | --- | --- |
| 4% | 5% | -2% | 2% | 13% | 0% | 15% | 8% | CS(=O)(=O)N1CC2(CCN(C(=O)OC[C@H]3O[C@@H](n4cnc5c(N)ncnc54)[C@H](O)[C@@H]3O)CC2)c2ccccc21 [Compound C98] |
| 1% | 2% | -2% | -3% | 9% | -7% | -1% | 10% | Nc1ncnc2c1ncn2[C@@H]1O[C@H](COC(=O)N2CCS(=O)(=O)CC2)[C@@H](O)[C@H]1O [Compound C100] |
